Assay results: patent US11407771B2 (priority 2018, dated 2022)

Each compound was assayed against T1, MAPK13 (Homo sapiens (Human), UniProt O15264) (assay: not given). Conditions: read-out: MAPK13 inhibition.
T1 sequence (O15264 whole entry): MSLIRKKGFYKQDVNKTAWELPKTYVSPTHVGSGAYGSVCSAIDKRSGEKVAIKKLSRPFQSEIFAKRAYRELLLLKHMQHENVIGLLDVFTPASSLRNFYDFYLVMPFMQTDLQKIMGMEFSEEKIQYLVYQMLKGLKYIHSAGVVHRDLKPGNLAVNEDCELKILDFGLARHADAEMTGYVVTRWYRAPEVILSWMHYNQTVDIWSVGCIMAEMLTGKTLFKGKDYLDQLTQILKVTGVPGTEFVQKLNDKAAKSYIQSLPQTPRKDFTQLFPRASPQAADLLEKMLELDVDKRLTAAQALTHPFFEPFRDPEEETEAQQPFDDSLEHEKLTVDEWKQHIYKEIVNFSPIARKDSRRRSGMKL

Structure (SMILES)	IC50 [µM]
CCOC(=O)Nc1cc(CCc2cnc(NC(=O)Nc3cc(C(C)(C)C)n[nH]3)s2)ccn1 [Compound 354, [4-(2-{2-[3-(5-tert-Butyl-2H-pyrazol-3-yl)-ureido]-thiazol-5-yl}-ethyl)-pyridin-2-yl]-carbamic acid ethyl ester]	< 0.25
CC(=O)Nc1cc(Oc2ccc(NC(=O)Nc3cc(C4CC4)ccc3F)c(F)c2)ccn1 [Compound 397, N-(4-{4-[3-(5-Cyclopropyl-2-fluoro-pheny)-ureido]-3-fluoro-phenoxy}-pyridin-2-yl)-actamde]	< 0.25
CC(=O)Nc1cc(CCc2cnc(NC(=O)Nc3cc(C4CC4)ccc3F)s2)ccn1 [Compound 398, N-[4-(2-{2-[3-(5-Cyclopropyl-2-fluoro-phenyl)-ureido]-thiazol-5-yl}-ethyl)-pyridin-2-yl]-acetamide]	< 0.25

What follows are compounds tested on MUC5AC mucin formation in IL-13-stimulated hTEC (assay: not given). Conditions: not given.

Structure (SMILES)	MUC5AC production
CCOC(=O)Nc1cc(CCc2cnc(NC(=O)Nc3cc(C(C)(C)C)n[nH]3)s2)ccn1 [Compound 354, [4-(2-{2-[3-(5-tert-Butyl-2H-pyrazol-3-yl)-ureido]-thiazol-5-yl}-ethyl)-pyridin-2-yl]-carbamic acid ethyl ester]	marked attenuation
CC(=O)Nc1cc(Oc2ccc(NC(=O)Nc3cc(C4CC4)ccc3F)c(F)c2)ccn1 [Compound 397, N-(4-{4-[3-(5-Cyclopropyl-2-fluoro-pheny)-ureido]-3-fluoro-phenoxy}-pyridin-2-yl)-actamde]	marked attenuation
CC(=O)Nc1cc(CCc2cnc(NC(=O)Nc3cc(C4CC4)ccc3F)s2)ccn1 [Compound 398, N-[4-(2-{2-[3-(5-Cyclopropyl-2-fluoro-phenyl)-ureido]-thiazol-5-yl}-ethyl)-pyridin-2-yl]-acetamide]	marked attenuation
O=c1ncn2nc(Sc3ccc(F)cc3F)ccc2c1-c1c(Cl)cccc1Cl [Compound 401, VX-745, reference compound]	no significant inhibition

The compounds below were run against T1, MAPK13 (assay: biochemical). Conditions: not given.

Structure (SMILES)	IC50 [µM]
COC(=O)Nc1cc(CCc2ccc(NC(=O)Nc3cc(C(C)(C)C)nn3CC3CC3)c(F)c2)ccn1 [Compound 316, [4-(2-{4-[3-(5-tet-Butyl-2-cyclopropylmethyl-2H-pyrazol-3-yl)-ureido]-3-fluoro-phenyl}-ethyl)-pyridin-2-yl]-carbamic acid methyl ester]	0.25 to 1
CC(C)(C)c1cc(NC(=O)Nc2ncc(CCc3ccnc(N)c3)s2)no1 [Compound 365, 1-{5-[2-(2-Amine-pyridin-4-yl)-ethyl]-thiazol-2-yl}-3-(5-tert-butyl-isoxazol-3-yl)-urea]	0.25 to 1
CC(C)(C)c1cc(NC(=O)Nc2ncc(CCc3ccnc(N)c3)s2)[nH]n1 [Compound 367, 1-{5-[2-(2-Ainino-pyridin-4-yl)-ethyl]-thiazol-2-yl}-3-(5-tert-butyl-2H-pyrazol-3-yl)-urea]	0.25 to 1
Cn1nc(C(C)(C)C)cc1NC(=O)Nc1ccc(CCc2ccnc(NC(=O)C3CC3)c2)cc1F [Compound 373, Cyclopropanecarboxylic acid [4-(2-{4-[3-(5-tert-butyl-2-methyl-2H-pyrazol-3-yl)-ureido]-3-fluoro-phenyl}-ethyl)-pyridin-2-yl]-amide]	0.25 to 1
CC(=O)Nc1cc(COc2ccc(NC(=O)Nc3cc([Si](C)(C)C)ccc3F)c(F)c2)ccn1 [Compound 405, N-(4-{3-fluoro-4-[3-(2-fluoro-trimethylsilanyl-phenyl)-ureido]-phenoxymethyl}-pyridin-2-yl)-acetamide]	0.25 to 1

Now from value to compound:

IC50 [µM]	Structure (SMILES)
0.25 to 1	CC(=O)Nc1cc(CCc2ccc(NC(=O)Nc3cc(C(C)(C)C)nn3-c3ccc(F)cc3)c(F)c2)ccn1 [Compound 379, N-{4-[2-(4-{3-[5-tert-Butyl-2-(4-fluoro-phenyl)-2H-pyrazol-3-yl]-ureido}-3-fluoro-phenyl)-ethyl]-pyridin-2-yl}-acetamide]
0.25 to 1	CC(C)(C)c1cc(NC(=O)Nc2ncc(CCc3ccncc3)s2)on1 [Compound 386, 1-(3-tert-Butyl-isoxazol-5-yl)-3-[5-(2-pyridin-4-yl-ethyl)-thiazol-2-yl]-urea]
0.25 to 1	CC(C)(C)c1cc(NC(=O)Nc2ncc(CCc3ccncc3)s2)no1 [Compound 387, 1-(5-tert-Butyl-isoxazol-3-yl)-3-[5-(2-pyridin-4-yl-ethyl)-thiazol-2-yl]-urea]
< 0.25	CC(=O)Nc1cc(Oc2ccc(NC(=O)Nc3cc(C(C)(C)C)nn3CC3CC3)c(F)c2)ccn1 [Compound 393, N-(4-{4-[3-(5-tert-Butyl-2-cyclopropylmethyl-2H-pyrazol-3-yl)-ureido]-3-fluoro-phenoxy}-pyridin-2-yl)-acetamide]
0.25 to 1	CC(=O)Nc1cc(COc2ccc(NC(=O)Nc3cc(C(C)(C)C)nn3CC3CC3)c(F)c2)ccn1 [Compound 413, N-(4-{4-[3-(5-tert-Butyl-2-cyclopropylmethyl-2H-pyrazol-3-yl)-ureido]-3-fluoro-phenoxymethyl}-pyridin-2-yl)-acetamide]
0.25 to 1	CC(=O)Nc1cc(COc2ccc(NC(=O)Nc3cc(C(C)(C)C)ccc3Cl)c(F)c2)ccn1 [Compound 414, N-(4-{4-[3-(5-tert-Butyl-2-chloro-phenyl)-ureido]-3-fluoro-phenoxymethyl}-pyridin-2-yl)-acetamide]
